# Columns and labels:
# [1] = tested on: middle cerebral artery (MCA) occlusion model mice; assay: Evaluation of preventive effect on ischemia-reperfusion brain damage (MCA occlusion model, drug i.v. immediately before and 3 h after infarction); format: in vivo, male ddY mice; conditions: 4 h MCA occlusion, infarct volume 24 h after start of occlusion (TTC)
# Method: In addition, a drug was administered immediately before infarction and during infarction in the MCA occlusion model, and the effect as a preventive drug was also investigated.
# (1) Evaluation Method for Preventive Effect of Ischemia-Reperfusion Brain Damage
# With the use of male ddY mice (25-30 g, 6-7 weeks old), middle cerebral artery (MCA) occlusion model mice were prepared according to the method of Koizumi et al. (“Strokes”, Vol. 8, pp 1-8, 1986). The MCA occlusion was carried out for 4 hours, a test drug solution was intravenously administered twice, namely, immediately before infarction and 3 hours after infarction. Brain slice samples were prepared 24 hours after the start of infarction and stained with triphenyltetrazolium chloride (TTC staining), and then the cerebral infarct volume was measured from the brain slice samples by image processing.
# [2] = tested on: middle cerebral artery (MCA) occlusion model mice; assay: Evaluation of therapeutic effect on ischemia-reperfusion brain damage (MCA occlusion model, single i.v. dose after reperfusion); format: in vivo, male ddY mice; conditions: infarct volume at 24 h
# Excerpt: Thus, a model evaluated for therapeutic effect of ischemia-reperfusion brain damage was constructed by administering a drug after reperfusion in the MCA occlusion model, and the effect of the test compound as a therapeutic drug was investigated: the therapeutic effect evaluation model reflects the direct damage by reactive oxygen species (ROIs) and the process to the secondary oxidative stress and inflammatory response due to ROIs. (2) Evaluation Method for Therapeutic Effect of Ischemia-Reperfusion Brain Damage With the use of male ddY mice (25-30 g, 6-7 weeks old), middle cerebral artery (MCA) occlusion model mice were prepared according to the method of Koizumi et al. (“Strokes”, Vol. 8, pp 1-8, 1986). The MCA occlusion was 4 hours, and a single dose of drug solution was intravenously administered 6 or 10 hours after the start of ischemia (i.e., 2 hours or […]). Brain slice samples were prepared 24 hours after the start of infarction and stained with triphenyltetrazolium chloride (TTC staining), and then the cerebral infarct volume was measured from the brain slice samples by image processing.
# [3] = tested on: mouse middle cerebral artery (MCA) occlusion model; conditions: i.v. twice, immediately before infarction and during infarction; prophylactic; cited from earlier work
# [4] = single i.v. dose 2 μmol/kg 6 hours after start of ischemia
# [5] = single i.v. dose 20 μmol/kg 6 hours after start of ischemia
# [6] = i.v. 20 mmol/kg×2 doses (so in the source)
Compound,suppression of the infarct volume ([1]; i.v. 2 μmol/kg×2 doses),suppression of the infarct volume ([1]; i.v. 20 μmol/kg×2 doses),"suppression of the infarct volume [2, 4]","suppression of the infarct volume [2, 5]",infarct inhibitory effect [3],"suppression of the infarct volume [1, 6]",suppression of the infarct volume ([2]; single i.v. dose 20 μmol/kg 10 hours after start of ischemia)
"Cc1c(O)cc2c(c1C)O[C@](C)(CCC[C@H](C)CCC[C@H](C)CCCC(C)C)CC2 [γ-Toc, 2R-γ-tocopherol, reference compound]",significantly suppressed,significantly suppressed,significantly suppressed,significantly suppressed,excellent infarct inhibitory effect,–,–
"Cc1c(OC(=O)CN(C)C)cc2c(c1C)O[C@](C)(CCC[C@H](C)CCC[C@H](C)CCCC(C)C)CC2.Cl [γ-TDMG, 2R-γ-tocopheryl N,N-dimethylglycinate hydrochloride]",a significant suppression of the infarct volume was observed,–,significantly suppressed,significantly suppressed,–,a significant suppression of the infarct volume was observed,–
"CC(C)=CCCC(C)=CCCC(C)=CCOC(=O)CN(C)C.Cl [FODMG, farnesol N,N-dimethylglycinate hydrochloride]",significantly suppressed,–,–,significantly suppressed,–,significantly suppressed,significantly suppressed
"CC(C)=CCC/C(C)=C/CC/C(C)=C/CO [FO, (2E,6E) farnesol, reference compound]",significant suppression of the infarct volume was not observed,significantly suppressed,–,–,–,–,–
2R-γ-tocopheryl phosphate disodium salt [γ-TPS],–,–,–,a significant suppression of the infarct volume was observed,–,–,–
"CC(C)=CCC/C(C)=C/CC/C(C)=C/CC[C@]1(C)CCc2c(C)c(OC(=O)CN(C)C)c(C)c(C)c2O1.Cl [α-T3DMG, 2R-α-tocotrienyl N,N-dimethylglycinate hydrochloride]",a significant suppression of the infarct volume was observed,a significant suppression of the infarct volume was observed,significantly suppressed,significantly suppressed,–,–,–
"CC(C)=CCC/C(C)=C/CC/C(C)=C/CC[C@]1(C)CCc2c(C)c(O)c(C)c(C)c2O1 [α-T3, 2R-α-tocotrienol]",–,–,–,–,excellent infarct inhibitory effect,–,–
"CC1=NN(c2ccccc2)C(=O)C1 [edaravone, reference compound]",significantly suppressed,a significant effect was not observed,–,–,–,–,–
"Cc1c(C)c2c(c(C)c1O)CC[C@@](C)(CCC[C@H](C)CCC[C@H](C)CCCC(C)C)O2 [α-Toc, 2R-α-tocopherol, reference compound]",a significant suppression of the infarct volume was not observed,significantly suppressed,–,–,–,–,–
